This is an account of results in ChEMBL document CHEMBL5728462, “Disubstituted compounds for treatment of medical disorders” (2021).

The experiment concerns the target Complement factor D (Homo sapiens, UniProt P00746). The experiment in a line: Human Factor D Assay: Human Factor D (purified from human serum, Complement Technology, Inc.) at 80 nM final concentration is incubated with test compound at various concentrations for 5 minutes at room temperature in 50 mM Tris, 1M NaCl, pH 7.5. A synthetic substrate Z-L-Lys-SBzl and DTNB (Ellman's reagent) are added to final concentrations of 100 μM each. Absorbance at 405 nm (A405) is recorded at 30 second intervals for 30 minutes using a microplate spectrophotometer. IC50 values are calculated by nonlinear regression of complement Factor D reaction rates as a function of test compound concentration.

Complement factor D, sequence (P00746 whole entry): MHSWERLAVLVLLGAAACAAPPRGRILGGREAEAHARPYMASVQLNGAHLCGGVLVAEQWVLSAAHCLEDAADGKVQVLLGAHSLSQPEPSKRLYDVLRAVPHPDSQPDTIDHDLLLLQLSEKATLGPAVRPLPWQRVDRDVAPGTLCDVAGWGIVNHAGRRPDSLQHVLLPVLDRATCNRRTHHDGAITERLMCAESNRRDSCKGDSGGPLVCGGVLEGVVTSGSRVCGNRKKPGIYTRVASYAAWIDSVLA

With `CC(=O)c1nn(CC(=O)N2C[C@H](F)C[C@H]2C(=O)Nc2cccc(Br)n2)c2ccc(-c3cnc(S(C)(=O)=NC(=O)OC(C)(C)C)nc3)cc12` (stereo partly specified), the IC50 was less than 1000 nM.

What is called IC50 is the concentration at which inhibition is half-maximal.
